# According to PubChem BioAssay (NCI):
#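 Step 1: Grow cells in 96-well plates. Step 2: Expose to compound for 48 hours at 5 concentrations. Step 3: Interpolate endpoints linearly; if unreached, use highest concentration. GI50 is the concentration that inhibits growth by half. At the TGI there is no net growth.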
# Legend:
# Assay in all cases: inhibition of tumour cell growth, NCI panel, 48 h
# BT-549 breast = test system: BT-549 breast
# UACC-257 melanoma = test system: UACC-257 melanoma
# OVCAR-4 ovarian = test system: OVCAR-4 ovarian
# MALME-3M melanoma = test system: MALME-3M melanoma
# HOP-92 NSCLC = test system: HOP-92 NSCLC
# DU-145 prostate = test system: DU-145 prostate
# A498 renal = test system: A498 renal
# ACHN renal = test system: ACHN renal
# HOP-62 NSCLC = test system: HOP-62 NSCLC
# HCT-116 colon = test system: HCT-116 colon
# UO-31 renal = test system: UO-31 renal
# MDA-MB-231 breast = test system: MDA-MB-231 breast
# IGROV1 ovarian = test system: IGROV1 ovarian
# RXF 393 renal = test system: RXF 393 renal
# SF-539 CNS = test system: SF-539 CNS
# HCT-15 colon = test system: HCT-15 colon
# SN12C renal = test system: SN12C renal
# PC-3 prostate = test system: PC-3 prostate
# CAKI-1 renal = test system: CAKI-1 renal
# KM12 colon = test system: KM12 colon
# TK-10 renal = test system: TK-10 renal
# SW-620 colon = test system: SW-620 colon
# SK-MEL-5 melanoma = test system: SK-MEL-5 melanoma
# SF-295 CNS = test system: SF-295 CNS
# HS 578T breast = test system: HS 578T breast
# CCRF-CEM leukemia = test system: CCRF-CEM leukemia
# EKVX NSCLC = test system: EKVX NSCLC
# NCI-H226 lung = test system: NCI-H226 lung
# T-47D breast = test system: T-47D breast
smiles,measurement,setting,value
COc1ccc2c(c1)N(CCO)C1=C(C(=O)OC1)C2c1cccc(F)c1 (configuration not stated),GI50,BT-549 breast,761 nM
same,TGI,BT-549 breast,> 14400 nM
same,GI50,UACC-257 melanoma,> 50000 nM
same,TGI,UACC-257 melanoma,> 50000 nM
same,GI50,OVCAR-4 ovarian,1830 nM
same,TGI,OVCAR-4 ovarian,> 50000 nM
same,GI50,MALME-3M melanoma,391 nM
same,TGI,MALME-3M melanoma,> 50000 nM
same,GI50,HOP-92 NSCLC,525 nM
same,TGI,HOP-92 NSCLC,> 23300 nM
same,GI50,DU-145 prostate,1240 nM
same,TGI,DU-145 prostate,> 38600 nM
same,GI50,A498 renal,157 nM
same,TGI,A498 renal,2120 nM
same,GI50,ACHN renal,386 nM
same,TGI,ACHN renal,> 50000 nM
same,TGI,HOP-62 NSCLC,> 50000 nM
same,GI50,HCT-116 colon,406 nM
same,TGI,HCT-116 colon,> 50000 nM
same,GI50,UO-31 renal,413 nM
same,TGI,UO-31 renal,> 50000 nM
same,GI50,MDA-MB-231 breast,1100 nM
same,TGI,MDA-MB-231 breast,> 19300 nM
same,GI50,IGROV1 ovarian,433 nM
same,TGI,IGROV1 ovarian,> 50000 nM
same,GI50,RXF 393 renal,555 nM
same,TGI,RXF 393 renal,> 50000 nM
same,GI50,SF-539 CNS,332 nM
same,TGI,SF-539 CNS,3190 nM
same,GI50,HCT-15 colon,233 nM
same,TGI,HCT-15 colon,> 50000 nM
same,GI50,SN12C renal,776 nM
same,TGI,SN12C renal,> 50000 nM
same,GI50,PC-3 prostate,232 nM
same,TGI,PC-3 prostate,> 50000 nM
same,GI50,CAKI-1 renal,393 nM
same,TGI,CAKI-1 renal,> 50000 nM
same,GI50,KM12 colon,255 nM
same,TGI,KM12 colon,> 50000 nM
same,GI50,TK-10 renal,10300 nM
same,TGI,TK-10 renal,> 50000 nM
same,GI50,SW-620 colon,236 nM
same,TGI,SW-620 colon,> 50000 nM
same,GI50,SK-MEL-5 melanoma,456 nM
same,TGI,SK-MEL-5 melanoma,> 11400 nM
same,GI50,SF-295 CNS,196 nM
same,TGI,SF-295 CNS,> 50000 nM
same,GI50,HS 578T breast,511 nM
same,TGI,HS 578T breast,> 50000 nM
same,GI50,CCRF-CEM leukemia,430 nM
same,TGI,CCRF-CEM leukemia,> 50000 nM
same,GI50,EKVX NSCLC,1340 nM
same,TGI,EKVX NSCLC,> 50000 nM
same,GI50,NCI-H226 lung,4160 nM
same,TGI,NCI-H226 lung,> 50000 nM
same,GI50,T-47D breast,1950 nM
same,TGI,T-47D breast,> 50000 nM
